Experimental findings from patent publication US7754743B2, “Heteroarylcarbamoylbenzene derivatives” (Banyu Pharmaceutical Co., Ltd., priority 2003, dated 2010) are described below.

This experiment deals with T1, recombinant human liver GK (Homo sapiens, UniProt P35557).
T1 construct: made in house; host or cells: E. coli
T1 sequence (P35557 1-466 isoform P35557-2): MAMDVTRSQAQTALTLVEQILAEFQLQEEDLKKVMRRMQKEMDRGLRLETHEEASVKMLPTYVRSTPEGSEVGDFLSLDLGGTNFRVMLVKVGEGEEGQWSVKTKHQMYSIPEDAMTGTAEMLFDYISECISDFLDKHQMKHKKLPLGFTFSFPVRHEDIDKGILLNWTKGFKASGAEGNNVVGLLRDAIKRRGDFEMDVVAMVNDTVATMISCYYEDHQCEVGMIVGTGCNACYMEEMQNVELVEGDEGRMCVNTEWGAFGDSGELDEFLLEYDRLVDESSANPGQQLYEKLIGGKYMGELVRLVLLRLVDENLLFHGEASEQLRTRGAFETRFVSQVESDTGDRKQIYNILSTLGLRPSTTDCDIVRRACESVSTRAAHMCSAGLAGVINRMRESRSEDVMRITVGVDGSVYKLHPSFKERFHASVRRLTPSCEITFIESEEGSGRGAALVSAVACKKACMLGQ
Kind of experiment: Glucokinase (GK) activation assay, G6PDH-coupled thio-NADH absorbance at 405 nm. The format is biochemical. How it is done:
The glucokinase activity is the degree of activation of glucokinase, as determined not by direct measurement of glucose-6-phosphate, but by measurement of the amount of thio-NADH produced upon production of phosphogluconolactone from glucose-6-phosphate by the reporter enzyme glucose-6-phosphate dehydrogenase.
The recombinant human liver GK used in this assay was expressed in E. coli as FLAG fusion protein, and it was purified by […] M2 AFFINITY GEL (Sigma).
The assay was carried out using a flat-bottomed 96-well plate at 30° C. A 69 μl portion of assay buffer (25 mM Hepes Buffer: pH=7.2, 2 mM MgCl2, 1 mM ATP, 0.5 mM TNAD, 1 mM dithiothreitol) was dispensed, and either a DMSO solution of the compound or 1 μl of DMSO as a control was added. Next, 20 μl of an enzyme mixture (FLAG-GK, 20 U/ml G6PDH) precooled in ice bath was dispensed, and then 10 μl of 25 mM glucose was added as substrate and reaction was initiated (final glucose concentration=2.5 mM).
FLAG-GK was added to produce an absorbance increment of from 0.05 to 0.1 after 5 minutes in the presence of 1% DMSO.
The OD values were measured at each concentration of the evaluated compound, using the OD value of the DMSO control as 100%. The Emax (%) and EC50 (μM) values were calculated from the OD value at each concentration, and used as indices of the GK activating power of the compounds.

Where [1] appears, read: final glucose concentration 2.5 mM, 30° C.

Structures are written as SMILES. Where two headings read alike, the source gives them in different places.

As a reminder, the Emax is the maximal effect, on the per cent scale that the assay sets. The term EC50 denotes the concentration at which the effect is half-maximal. Turning to `Cc1csc(NC(=O)c2cc(Oc3ccc(S(C)(=O)=O)cc3)cc(OC(C)C)c2)n1` [Production Example 1, 5-isopropoxy-3-(4-methanesulfonylphenoxy)-N-(4-methylthiazol-2-yl)-benzamide], the maximal response (Emax) was 957%. In addition, under setting [1], the EC50 came to 250 nM.

As for `COC(=O)NCc1ccc(Oc2cc(OC(C)C)cc(C(=O)Nc3nccs3)c2)cc1` [Production Example 59, 5-isopropoxy-3-(4-methoxycarbonylaminomethylphenoxy)-N-thiazol-2-yl-benzamide], the Emax (OD value of DMSO control as 100%, final glucose concentration 2.5 mM, 30° C., read-out: Emax(%)) amounted to 936%. Besides, the half-maximal effective concentration (EC50) under setting [1] worked out at 530 nM.
